# Test results reported in patent US12569508B2, “Antimicrobial compositions and methods of use” (priority 2020, dated 2026).
# System: PAO1 biofilm
# Test: In vitro MBEC antibiofilm assay
# Format: cell-based, P. aeruginosa
# Settings: 5-15 μg/mL colistin
# Description: The pegs on lid of the MBEC Assay® were submerged into the bacterial suspension, with column 12 containing sterile LB broth as a negative control. The plate was incubated at 37° C. on a rotating gyrator for 24 h to form biofilm on the pegs. After 24 h, the peg lid was removed and transferred into another 96-well microtiter plate containing sterile water for 30 seconds before being transferred into a treatment plate. The peg lid in the treatment plate was incubated for 24 h at 37° C. on the rotating gyrator. In the first study, the effect of concentration variation of TOB in MO-LCNPs was determined. […] The respective controls included unloaded formulations MO-LCNP and […] at equivalent concentrations and 0.9% NaCl. […] In the second study, the difference in effect of MO- and […] compared to liposomes containing TOB was determined. […] The final concentration of MO and PHY was 0.25 mg/mL. Liposomes were prepared as described above. In the third study, TOB, AMI and GEN as unformulated solutions and loaded in MO-LCNPs were compared as treatments against PAO1 biofilms in the MBEC Assay®. The concentration of each antibiotic was 6 μg/mL. […] In all four different studies, the treatments were incubated with the PAO1 biofilm grown on the MBEC Assay® on a rotating plate at 37° C. After 24 h incubation, the peg lid was transferred to a fresh plate containing sterilized water to inhibit treatments. […]
substance,measurement,value
Colistin sulfate salt,anti-biofilm effect compared to saline control,no anti-biofilm or antimicrobial effect
